According to patent publication US20240165123A1, “USE OF A COMPOUND CONTAINING A TRICYCLIC HETEROARYL GROUP” (CSPC Zhongqi Pharmaceutical Technology (Shijiazhuang) Co., …, priority 2021, published 2024):

Tests used:
[1] = test system: IMQ-induced mouse psoriasis model; experiment: Pharmacodynamic test in the IMQ-induced mouse psoriasis model; format: in vivo, female Balb/c mice; parameters: key to Skin PASI score Erythema / Skin PASI score Scaling / Skin PASI score Thickness: PASI component score, 0-4 points; key to Skin PASI Total Score: sum of erythema, scaling, thickness scores (each 0-4); key to Skin pathological score: sum of histopathology criterion points; details: Dex 3 mpk PO qd
Text: The purpose of this test was to evaluate the pharmacodynamics of Compound (I) in the IMQ (5% imiquimod cream cream)-induced mouse psoriasis model. One of the clinical adverse effects of imiquimod is to induce the onset of psoriasis.
• Test medicament: Compound (I) • Positive control medicament: dexamethasone (Dex) • Vehicle: 0.4% Tween 80/0.5% methylcellulose.
• female Balb/c mice aged 5-6 weeks, number: 70.
The animals were randomly divided into seven groups according to the body weights on the day before the start of the experiment.
The animals were shaved on their back one day before applying the medicament, forming a skin exposure area having a size of about 2 cm×3 cm. The mice were induced by IMQ, and applied with 62.5 mg of 5% imiquimod cream on the bare back and the right ear at regular intervals every day for 14 days. Mice in the normal control group were applied with vaseline on the bare back and the right ear at regular intervals every day.
The skin thickness was measured daily from the first day of the test until the end of the test.
The skin thickness measurement method was as follows: the back skin and the subcutaneous tissue of the mouse were pinched with the thumb and the index finger of the left hand in the same direction as the mouse body; the skinfold thickness was measured 1 cm away from the pinched part of the left hand (near the center of the molding part) with a digital thickness gauge (with millesimal reading) held in the right hand (model BK-3281, manufacturer: Shanghai Niuhui). The thickness was in mm, and the actual thickness was the half of the measured thickness (the skin thickness=the measured value/2).
The ear thickness was measured daily (at the center of the auricle).
Skin photographs were taken daily from the first day of the test until the end of the test.
The clinical symptoms were evaluated with the PASI evaluation standard from three indicators of the erythema (Erythema), the scale (Scaling) and the skin thickness (Thickness), and scored with 0-4 points. The total score was obtained by summing the three scores. The PASI evaluation standard was as follows: 0, asymptomatic; 1, mild; 2, moderate; 3, severe; 4, extremely severe.
Erythema: 0—no erythema visible; 1—light red; 2—red; 3—dark red; 4—extremely dark red.
Scaling: 0—no visible scale on the skin surface; 1—part of the skin lesion surface covered with scales; 2—most of the skin lesion surface covered with scales; 3—almost all of the skin lesion region covered with scales; 4—all of the skin lesion region covered with scales.
Dryness and pruritus are not included in the total score.
On the 14th day of the test, the spleen weight was collected.
After the test, all mice were euthanized by excessive inhalation of carbon dioxide. The skin was collected and divided into four parts, one of which was fixed in a tissue fixative solution for 24 hours for the pathological is detection. It was dehydrated, then embedded in paraffin and made into 4-micron sections. Skin sections were stained with hematoxylin eosin to observe the infiltration of the stratum corneum, the epidermal layer, the dermis layer and the inflammatory cell. When measuring the thickness of the epidermal layer, the stained skin sections were scanned with a Leca Aperio CS2 scanner at 200×magnification, and then the histopathological changes were observed and scored.
The specific criteria of the pathological score were as follows: munro microabscess found in the epidermal layer 2.0 points; hyperkeratosis 0.5 points; parakeratosis 1.0 points; the thinning or disappearing of the granular layer 1.0 points; the thickening of acanthosis 1.0 points; the extension and fluctuation of cuticular process 0.5, 1.0 and 1.5 points respectively according to the mild, moderate and severe degrees. […]

[2] = test system: OXA-induced Balb/c mouse atopic dermatitis model; experiment: Pharmacodynamic test in the OXA-induced mouse atopic dermatitis model; format: in vivo, female Balb/c mice
Text: The purpose of this test was to evaluate the pharmacodynamics of Compound (I) in the OXA-induced Balb/c mouse atopic dermatitis model. Repeated OXA stimulation of the dorsal skin of mice could produce a long-term inflammatory reaction. This model was closer to the clinical skin inflammation and was a common model for screening and evaluating compounds with anti-inflammatory activity.
Female Balb/c mice aged 8-9 weeks, number: 70
According to the body weight of animals in each group before administration, they were randomly divided into 7 groups with 10 animals in each group.
OXA induction was performed on the 7th day. The induction mode was to apply 5% OXA (dissolved in the acetone/olive oil (4/1) solvent) to the back of mice near the neck in an amount of 10 μL (1.5 cm×1.5 cm). Mice in the normal control group were applied with 10 μL of the acetone/olive oil (4/1) solvent in the same way. From the 1st da to 22nd day, the immunostimulation was performed, and 100 μL of 0.1% OXA (dissolved in the acetone/olive oil (4/1) solvent) was evenly applied on the back of mice near the neck. The application was performed every two days. Mice in the normal control group were applied with 100 μL of the acetone/olive oil (4/1) solvent in the same way. On the day of the immunostimulation, measuring the skin thickness, clinically scoring and photographing were required, and the OXA application was carried out after the above work was completed.
Compound (I) was administered by gavage twice a day (PO, bid) from the 1st to 22nd day. The administration was performed in the morning and completed before measuring the skin thickness, clinically scoring, photographing, and the OXA immunostimulation. The interval between two administrations was 8 hours.
Body weight data were recorded twice a week.
Skin thickness (1.5 cm×1.5 cm, the modeling area) was measured with a Mitutoyo digital indicator (Mitutoyo digimatic indicator, Type ID-C, USA) from the 1st to 22nd day. The measurement was performed every two days. If the skin thickness measurement and the OXA immunostimulation were performed on the same day, the skin thickness measurement would be preferred.
The skin in the modeling area was clinically scored according to the skin scoring criteria in Table 12 from the 1st to 22nd day and evaluated every two days. If the skin clinical scoring and the OXA immunostimulation were performed on the same day, the skin clinical scoring would be preferred.
At the end of the study, the tissue in the modeling area was stained with hematoxylin eosin for the skin pathological scoring and the epidermal thickness measurement.
After the mice were sacrificed, the dorsal skin was removed and fixed in 10% neutral formalin for 24 hours. It was dehydrated, then embedded in paraffin and made into 4-micron sections. The skin sections were stained with hematoxylin eosin, and the inflammatory cell infiltration and tissue changes in the stratum corneum, the epidermis layer and the dermis layer were observed under the microscope, and the pathological scores were made. The scoring criteria were: inflammatory cell aggregation and edema, which were divided into slight 1 point, moderate 2 points, and severe 3 points; telangiectasia, which was divided into slight 1 point, moderate 2 points, and severe 3 points.
The specific scoring criteria of inflammatory cell aggregation were as follows: (1) slight-1 point: inflammatory cells occupied a small amount of <10% of the dermal area of the skin; (2) moderate-2 points: inflammatory cells occupied 10%-50% of the dermal area of the skin; (3) severe-3 points: the inflammatory cells occupied greater than 50% of the dermal area of the skin. […]

[3] = Dexamethasone 3 mpk PO qd, 1st Day

SMILES: C[C@@H]1C[C@H]2[C@@H]3CCC4=CC(=O)C=C[C@]4(C)[C@@]3(F)[C@@H](O)C[C@]2(C)[C@@]1(O)C(=O)CO [Dexamethasone, reference compound]
- Ear thickness Left ([1]; 1st Day): 0.14 ± 0.00 mm
- Ear thickness Right ([1]; 1st Day): 0.14 ± 0.00 mm
- Ear thickness Right-Left ([1]; 1st Day): 0.00 ± 0.00 mm
- Skin PASI Total Score ([1]; 1st Day): 0.00 ± 0.00
- Skin PASI score Erythema ([1]; 1st Day): 0.00 ± 0.00
- Skin PASI score Scaling ([1]; 1st Day): 0.00 ± 0.00
- Skin PASI score Thickness ([1]; 1st Day): 0.00 ± 0.00
- Skin thickness ([1]; 1st Day): 0.32 ± 0.00 mm
- Ear thickness Left ([1]; 14th Day): 0.15 ± 0.00 mm
- Ear thickness Right ([1]; 14th Day): 0.33 ± 0.01 mm
- Ear thickness Right-Left ([1]; 14th Day): 0.18 ± 0.00 mm
- Skin PASI Total Score ([1]; 14th Day): 4.10 ± 0.18
- Skin PASI score Erythema ([1]; 14th Day): 2.10 ± 0.10
- Skin PASI score Scaling ([1]; 14th Day): 1.10 ± 0.10
- Skin PASI score Thickness ([1]; 14th Day): 0.90 ± 0.10
- Skin thickness ([1]; 14th Day): 0.32 ± 0.01 mm
- Epidermal thickness ([1]; after 14 days of treatment): 84.98 ± 7.40 μm
- IL-6 content in skin (ELISA) ([1]; after 14 days of treatment): 607.20 ± 76.89 pg/g
- Skin pathological score ([1]; after 14 days of treatment): 3.95 ± 0.50
- Spleen weight ([1]; after 14 days of treatment): 93.79 ± 4.64 mg
- Spleen weight/body weight (spleen index) ([1]; after 14 days of treatment): 6.17 ± 0.29 mg/g
- TNF-alpha content in skin (ELISA) ([1]; after 14 days of treatment): 1172.53 ± 115.72 pg/g
- Body weight [2, 3]: 18.08 ± 0.12 g
- Skin clinical score [2, 3]: 0.4 ± 0.16
- Skin thickness (modeling area) ([2]; Dexamethasone 3 mpk PO qd, 1st day): 0.532 ± 0.012 mm
- Body weight ([2]; Dexamethasone 3 mpk PO qd, −7th Day): 18.08 ± 0.12 g
- Influence on the body weight of mice ([2]; dexamethasone 3 mpk PO qd, end of the study): decreased significantly
